Among the test systems are SN12C renal; HS 578T breast; KM12 colon; SNB-19 CNS; TK-10 renal; RXF 393 renal; NCI-H460 lung; SK-MEL-28 melanoma; OVCAR-5 ovarian; RPMI-8226 leukemia.
Common to all, as to experiment: growth of human tumour cells (NCI), 48 h

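48-hour exposure; five concentrations; linearly interpolated endpoints. At the GI50, growth is halved. TGI is the concentration that stops growth completely.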 Some results are limits rather than exact numbers.

On to `CC1CCc2c(c(CC3CC(=O)NC(=O)C3)nn2-c2ccccc2)C1` (stereo not given), for which the TGI in the experiment with SN12C renal, with HS 578T breast, in the experiment on KM12 colon, in the experiment on SNB-19 CNS, with TK-10 renal and in the experiment with RXF 393 renal was above 100 µM in each case. The TGI with NCI-H460 lung, in the experiment on SK-MEL-28 melanoma, with OVCAR-5 ovarian and in the experiment on RPMI-8226 leukemia was above 100 µM in each case.
On to `COc1cc2ncn(-c3cc(OCc4ccccc4C(F)(F)F)c(C(C)=O)s3)c2cc1OC`, for which the GI50 in the experiment with SN12C renal is above 21.7 µM; in the experiment on HS 578T breast, 19.3 µM; in the experiment with KM12 colon, above 25 µM; in the experiment on SNB-19 CNS, above 25 µM; in the experiment with TK-10 renal it was above 25 µM; in the experiment with RXF 393 renal it was above 21.5 µM. In addition, the GI50 in the experiment with NCI-H460 lung, in the experiment on SK-MEL-28 melanoma, with OVCAR-5 ovarian and in the experiment on RPMI-8226 leukemia was above 25 µM throughout. Further, the TGI in the experiment on SN12C renal, in the experiment on HS 578T breast, in the experiment with KM12 colon, with SNB-19 CNS, in the experiment with TK-10 renal and with RXF 393 renal was above 25 µM each time. For the same compound, the TGI in the experiment with NCI-H460 lung, in the experiment with SK-MEL-28 melanoma, in the experiment with OVCAR-5 ovarian and in the experiment with RPMI-8226 leukemia was above 25 µM each time.
On to `CC1=NN(C(=O)c2ccncc2)C(=O)C1N=Nc1ccc2ccccc2c1` (stereo not given), for which the TGI in the experiment with SN12C renal, in the experiment with HS 578T breast, with KM12 colon, with SNB-19 CNS, in the experiment on TK-10 renal and in the experiment with RXF 393 renal was above 100 µM throughout. Further, the TGI with NCI-H460 lung, in the experiment with SK-MEL-28 melanoma, in the experiment on OVCAR-5 ovarian and with RPMI-8226 leukemia was above 100 µM each time.
Consider `CCOC(=O)c1cc(-c2ccc(OC)c(OC)c2)[nH]c1N/N=C/c1c(Cl)cccc1Cl`, for which the GI50 with SN12C renal was 3.64 µM; in the experiment on HS 578T breast it was 2.71 µM; with KM12 colon it was 0.636 µM; in the experiment on SNB-19 CNS, 2.6 µM; in the experiment on TK-10 renal it was 2.5 µM; in the experiment with RXF 393 renal it was 1.91 µM. The GI50 was 1.35 µM in the experiment with NCI-H460 lung, 1.12 µM in the experiment with SK-MEL-28 melanoma, 4.56 µM in the experiment on OVCAR-5 ovarian and 3.31 µM in the experiment on RPMI-8226 leukemia. In addition, the TGI is 22.3 µM in the experiment with SN12C renal; 18.8 µM in the experiment with HS 578T breast; 9.98 µM with KM12 colon; 34.2 µM in the experiment with SNB-19 CNS; 11.4 µM in the experiment with TK-10 renal; 9.77 µM in the experiment with RXF 393 renal. Further, the TGI is above 35.9 µM with NCI-H460 lung, above 100 µM in the experiment on SK-MEL-28 melanoma, 20.3 µM with OVCAR-5 ovarian and above 37.5 µM in the experiment with RPMI-8226 leukemia.
Turning to `C=C1CCC2C3(C)COC(c4ccc(Cl)cc4)OC3CCC2(C)C1/C=C/C1=CCOC1=O` (stereo not given), the GI50 was 7.56 µM with SN12C renal; 11.5 µM with HS 578T breast; 9.19 µM in the experiment with KM12 colon; 15.9 µM with SNB-19 CNS; 14.4 µM in the experiment on TK-10 renal; 12 µM in the experiment with RXF 393 renal. The GI50 was 4.42 µM in the experiment with NCI-H460 lung, 21.7 µM with SK-MEL-28 melanoma, 70.2 µM with OVCAR-5 ovarian and 0.602 µM in the experiment with RPMI-8226 leukemia. In addition, the TGI in the experiment on SN12C renal is above 100 µM; in the experiment with HS 578T breast, 42.5 µM; with KM12 colon it was above 100 µM; with SNB-19 CNS, 88.4 µM; in the experiment with TK-10 renal, above 100 µM; in the experiment on RXF 393 renal it was 58.2 µM. The TGI with NCI-H460 lung, in the experiment on SK-MEL-28 melanoma, with OVCAR-5 ovarian and in the experiment on RPMI-8226 leukemia was above 100 µM each time.
In the case of `COc1ccc(CNc2cnc3cc(N)cc(N)c3n2)cc1`, the GI50 in the experiment on SN12C renal is 18.4 µM; in the experiment on HS 578T breast, 24.2 µM; with KM12 colon it was 23.5 µM; in the experiment with SNB-19 CNS, 52.3 µM; in the experiment with TK-10 renal it was 27 µM; in the experiment on RXF 393 renal, 22.3 µM. The GI50 in the experiment with NCI-H460 lung was 33.8 µM; in the experiment with SK-MEL-28 melanoma, 58 µM; with OVCAR-5 ovarian it was 18.1 µM; with RPMI-8226 leukemia, 23 µM. In addition, the TGI is 32.9 µM in the experiment with SN12C renal; 69.3 µM with HS 578T breast; 67.6 µM with KM12 colon; above 100 µM with SNB-19 CNS; 64.2 µM in the experiment with TK-10 renal; 49.8 µM in the experiment on RXF 393 renal. In addition, the TGI with NCI-H460 lung is above 100 µM; in the experiment with SK-MEL-28 melanoma, above 100 µM; in the experiment with OVCAR-5 ovarian it was 43.6 µM; with RPMI-8226 leukemia it was 82.3 µM.
`CN1CCN(Cc2ccc(NC(=O)c3cncc(C#Cc4cnn5ccccc45)c3)cc2C(F)(F)F)CC1`: the GI50 was 0.825 µM in the experiment with SN12C renal; 0.735 µM with HS 578T breast; 0.016 µM with KM12 colon; 1.58 µM in the experiment with SNB-19 CNS; 1.61 µM in the experiment with TK-10 renal; 0.693 µM in the experiment with RXF 393 renal. The GI50 in the experiment on NCI-H460 lung was 0.402 µM; in the experiment on SK-MEL-28 melanoma, 1.22 µM; in the experiment on OVCAR-5 ovarian, 1.12 µM; in the experiment with RPMI-8226 leukemia it was 0.57 µM. Moreover, the TGI in the experiment with SN12C renal came to 3.85 µM; with HS 578T breast, 2.91 µM; with KM12 colon, 1.14 µM; with SNB-19 CNS, 5.03 µM; with TK-10 renal it was 4.13 µM; in the experiment with RXF 393 renal, 1.66 µM. In addition, the TGI is 1.98 µM in the experiment with NCI-H460 lung, 3.53 µM in the experiment on SK-MEL-28 melanoma, 5.09 µM with OVCAR-5 ovarian and 1.82 µM with RPMI-8226 leukemia.

(Values after PubChem BioAssay (NCI).)
